From article PMC3654253 (Biochemical pharmacology, 2013)
Entries after “also recorded” stand apart in the source; their conditions may differ.

Tests used:
NaV channels = settings: cited from earlier work
[1] = system: insect NaV channels (cockroach DUM neurons); assay: Whole-cell patch-clamp, NaV channel currents; assay type: cell-based, American cockroach (Periplaneta americana)

## NC1=N[C@H](O)[C@H]2[C@H]3O[C@]4(O)O[C@@H]([C@@H](O)[C@@]2(N1)[C@@H]4O)[C@]3(O)CO [TTX, tetrodotoxin]
NaV channels
  effect on peak INa: reduce peak INa
[1]
  inhibition of INa by TTX: complete INa inhibition; also recorded: Complete block of INa
